Values quoted from earlier work in article PMC5666773, “Human Immunodeficiency Virus Proteins Mimic Human T Cell Receptors Inducing Cross-Reactive Antibodies” (International Journal of Molecular Sciences, 2017).

Molecular target: naturally circulating anti-insulin
Conditions: healthy human beings and cats; no clinical effect; read-out: naturally circulating anti-insulin binding

insulin
Kd: ~10 µM
